{
  "source": "ChEMBL document CHEMBL2429757",
  "about": "“Discovery of a novel series of potent non-nucleoside inhibitors of hepatitis C virus NS5B” (J Med Chem, 2013)",
  "test": "Thermal aqueous solubility of the compound at pH 6.4 by high throughput assay",
  "type": "physicochemical",
  "conditions": "buffer",
  "data": [
    {"smiles": "COc1c(/C=C/c2ccc(NS(C)(=O)=O)cc2)cc(-c2ccc[nH]c2=O)cc1C(C)(C)C", "values": [
      {"measurement": "solubility", "value": "< 1", "unit": "µg/mL"}
    ]}
  ]
}
